Measured values as given in PubChem BioAssay (NCI).
Several values for one entry are separate records, joined by “and”; a condition that tells them apart may be missing. Equal entries are not always repeated.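 Where inhibition never reached the appropriate level, the endpoint shown equals the highest concentration tested. Otherwise, values were interpolated linearly from a five-concentration, 48-hour dose response in 96-well plates. GI50: concentration for 50% inhibition of growth. TGI: total growth inhibition.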

These compounds were tested on MDA-MB-231 breast (assay: NCI tumour cell line growth inhibition, 48 h).
CC(=C(c1ccc(OCCN2CCCCC2)cc1)c1ccc(OCCN2CCCCC2)cc1)c1ccc(Cl)cc1 showed a GI50 of 0.425 µM and a TGI of 0.806 µM.
In the case of C=C(C)C(=O)O[C@@H]1C[C@@]2(C)O[C@@H]2C[C@H](O)/C(C)=C/[C@H]2OC(=O)C(=C)[C@@H]21, the TGI is reported as > 100 µM.
With C=CC(=O)Nc1cc(Nc2nccc(-c3cn(C)c4ccccc34)n2)c(OC)cc1N(C)CCN(C)C the GI50 was 1.59 µM and 1.7 µM and the TGI was 3.45 µM and 3.6 µM.
With CC(=O)OC1(C)N=NC2(CCCCC2)O1 (centres undefined) the TGI was > 100 µM.
In the case of C=C1C(=O)O[C@H]2[C@H]1CC/C(CNC(=O)c1cc3ccccc3[nH]1)=C\CC[C@@]1(C)O[C@@H]21, the GI50 is reported as 1.38 µM and the TGI is reported as 3.34 µM.
With Cc1cc2c(cc1C)[n+](=O)c(C(=O)c1ccccc1)c(C(F)F)n2[O-] the GI50 was 30.4 µM and the TGI was > 100 µM.
With COc1cc2c(cc1OC)C(Cl)C(c1ccc(F)cc1)=C2Cl (centres undefined) the TGI was 27 µM.
With CN(C)c1ccc(/C=N/NC(=S)Nc2ccccc2)cc1 the TGI was > 100 µM.
Compound COc1ccc2ncnc(Nc3ccc(OCc4ccccc4)cc3)c2c1 has a GI50 of 4.6 µM and a TGI of 11.1 µM.
For O=C1c2c(F)c(F)c(F)c(F)c2C(=O)N1c1ccc(F)cc1F, the GI50 was 5.53 µM and the TGI was 19.5 µM.
CC(C)[C@@H]1NC(=O)[C@]2(C)CSC(=N2)c2ccnc(c2)CNC(=O)C[C@@H](/C=C/CCS)OC1=O was tested, and the GI50 was 0.472 µM and the TGI was > 100 µM.
OC(c1cc(C(F)(F)F)nc2c(C(F)(F)F)cccc12)C1CCCCN1 (centres undefined) was tested, and the GI50 was 1.78 µM and the TGI was 3.45 µM.
Compound C/C=C/[C@@H]1O[C@@H]2COC(=O)C2=C[C@@H]1O has a GI50 of 19.6 µM and a TGI of 39.7 µM.

These compounds were tested on SF-295 CNS (assay: NCI tumour cell line growth inhibition, 48 h).
CC[C@@H](c1ccc(O)c(O)c1)[C@@H](CC)c1ccc(O)c(O)c1 showed a GI50 of 27.4 µM and a TGI of 87 µM.
O=C1OCC2=C1C(c1cccc(Br)c1)c1cc3c(cc1N2CCO)OCCO3 (centres undefined) showed a GI50 of 0.0184 µM and a TGI of 0.417 µM.
For COc1cc(-c2nc3sccn3c2-c2ccnc(NCCNS(=O)(=O)c3ccc(F)cc3)n2)ccc1F, the GI50 was 2.87 µM and the TGI was > 100 µM.
For O=C1CSC(=S)N1/N=C/c1ccc(Cl)c([N+](=O)[O-])c1, the TGI was 68.5 µM.
In the case of Cn1cc(-c2cc3c(N4CCN(c5ncc([C@@](C)(N)c6ccc(F)cc6)cn5)CC4)ncnn3c2)cn1, the GI50 is reported as 3.56 µM and the TGI is reported as > 100 µM.
In the case of CCCCCCCCCCSC(=N)N (tested in a mixture with another compound), the GI50 is reported as 3.79 µM and the TGI is reported as 14.3 µM.
For CCOc1ccc(NC2=CC(=O)C(=O)c3ccccc32)cc1, the TGI was 5.4 µM.
O=C1c2ccccc2C(=O)c2c(/C=C\N3CCCCC3)ccnc21 was tested, and the TGI was 5.25 µM.
C=C1C[C@H](O)[C@H](Br)C(C)(C)[C@@]12CCC(C)=C(Cl)C2 gave a GI50 of 0.105 µM and a TGI of 1.69 µM.
Work on O=C(NC1CCCCC1)NS(=O)(=O)c1ccc(N2N=C3c4ccccc4CC3C2c2ccc(Cl)cc2)cc1 (centres undefined) yielded a GI50 of 15.9 µM and a TGI of 43.9 µM.
Compound c1ccc(-c2n(Cc3ccc4ccccc4n3)cc[n+]2Cc2ccc3ccccc3c2)cc1 has a GI50 of 1.73 µM and a TGI of 4.73 µM.
C[C@@H]1CC[C@H]2C(C)(C)[C@H]3C[C@@]12CC[C@@]3(C)O was tested, and the TGI was > 100 µM.
O=C(Nc1cccc(C(F)(F)F)c1)Nc1cccc(C(F)(F)F)c1 was tested, and the GI50 was 0.323 µM and the TGI was 1.57 µM.
For CCOC(=O)n1cc(C2=C(c3ccc(OC)c(OC)c3)COC2=O)c2ccccc21, the GI50 was 0.0388 µM and the TGI was > 100 µM.
CC(=C(c1ccc(OCCN2CCCCC2)cc1)c1ccc(OCCN2CCCCC2)cc1)c1ccc(Cl)cc1 showed a GI50 of 0.449 µM and a TGI of 0.868 µM.
For C=C(C)C(=O)O[C@@H]1C[C@@]2(C)O[C@@H]2C[C@H](O)/C(C)=C/[C@H]2OC(=O)C(=C)[C@@H]21, the TGI was > 100 µM.
In the case of C=CC(=O)Nc1cc(Nc2nccc(-c3cn(C)c4ccccc34)n2)c(OC)cc1N(C)CCN(C)C, the GI50 is reported as 2.76 µM and 2.02 µM and the TGI is reported as 8.31 µM and 4.61 µM.
For CC(=O)OC1(C)N=NC2(CCCCC2)O1 (centres undefined), the TGI was > 100 µM.
For C=C1C(=O)O[C@H]2[C@H]1CC/C(CNC(=O)c1cc3ccccc3[nH]1)=C\CC[C@@]1(C)O[C@@H]21, the GI50 was 6.45 µM and the TGI was 19.5 µM.
Cc1cc2c(cc1C)[n+](=O)c(C(=O)c1ccccc1)c(C(F)F)n2[O-] showed a GI50 of 7.27 µM and a TGI of 42.5 µM.
In the case of COc1cc2c(cc1OC)C(Cl)C(c1ccc(F)cc1)=C2Cl (centres undefined), the TGI is reported as 29 µM.
CN(C)c1ccc(/C=N/NC(=S)Nc2ccccc2)cc1 was tested, and the TGI was > 100 µM.
For COc1ccc2ncnc(Nc3ccc(OCc4ccccc4)cc3)c2c1, the GI50 was 5.15 µM and the TGI was > 18.7 µM.
With O=C1c2c(F)c(F)c(F)c(F)c2C(=O)N1c1ccc(F)cc1F the GI50 was 13.7 µM and the TGI was 46.4 µM.
CC(C)[C@@H]1NC(=O)[C@]2(C)CSC(=N2)c2ccnc(c2)CNC(=O)C[C@@H](/C=C/CCS)OC1=O was tested, and the GI50 was 0.0623 µM and the TGI was 0.322 µM.
OC(c1cc(C(F)(F)F)nc2c(C(F)(F)F)cccc12)C1CCCCN1 (centres undefined) showed a GI50 of 2.04 µM and a TGI of 5.09 µM.
C/C=C/[C@@H]1O[C@@H]2COC(=O)C2=C[C@@H]1O was tested, and the GI50 was 29.9 µM and the TGI was > 56.4 µM.

Each compound was assayed on SF-539 CNS (assay: NCI tumour cell line growth inhibition, 48 h).
Compound CC[C@@H](c1ccc(O)c(O)c1)[C@@H](CC)c1ccc(O)c(O)c1 has a GI50 of 6.66 µM and a TGI of 23.6 µM.
For O=C1OCC2=C1C(c1cccc(Br)c1)c1cc3c(cc1N2CCO)OCCO3 (centres undefined), the GI50 was 0.051 µM and the TGI was 0.46 µM.
For COc1cc(-c2nc3sccn3c2-c2ccnc(NCCNS(=O)(=O)c3ccc(F)cc3)n2)ccc1F, the GI50 was 4.86 µM and the TGI was > 100 µM.
In the case of O=C1CSC(=S)N1/N=C/c1ccc(Cl)c([N+](=O)[O-])c1, the TGI is reported as > 100 µM.
With Cn1cc(-c2cc3c(N4CCN(c5ncc([C@@](C)(N)c6ccc(F)cc6)cn5)CC4)ncnn3c2)cn1 the GI50 was 1.6 µM and the TGI was > 100 µM.
With CCCCCCCCCCSC(=N)N (tested in a mixture with another compound) the GI50 was 10.9 µM and the TGI was 23.8 µM.
In the case of CCOc1ccc(NC2=CC(=O)C(=O)c3ccccc32)cc1, the TGI is reported as 4.18 µM.
With O=C1c2ccccc2C(=O)c2c(/C=C\N3CCCCC3)ccnc21 the TGI was 9.65 µM.
C=C1C[C@H](O)[C@H](Br)C(C)(C)[C@@]12CCC(C)=C(Cl)C2 gave a GI50 of 0.445 µM and a TGI of 11.3 µM.
In the case of O=C(NC1CCCCC1)NS(=O)(=O)c1ccc(N2N=C3c4ccccc4CC3C2c2ccc(Cl)cc2)cc1 (centres undefined), the GI50 is reported as 12.8 µM and the TGI is reported as 31.9 µM.
With c1ccc(-c2n(Cc3ccc4ccccc4n3)cc[n+]2Cc2ccc3ccccc3c2)cc1 the GI50 was 1.45 µM and the TGI was 4.64 µM.
For C[C@@H]1CC[C@H]2C(C)(C)[C@H]3C[C@@]12CC[C@@]3(C)O, the TGI was > 100 µM.
With O=C(Nc1cccc(C(F)(F)F)c1)Nc1cccc(C(F)(F)F)c1 the GI50 was 2.13 µM and the TGI was 5.23 µM.
In the case of CCOC(=O)n1cc(C2=C(c3ccc(OC)c(OC)c3)COC2=O)c2ccccc21, the GI50 is reported as 0.031 µM and the TGI is reported as 0.156 µM.
CC(=C(c1ccc(OCCN2CCCCC2)cc1)c1ccc(OCCN2CCCCC2)cc1)c1ccc(Cl)cc1 was tested, and the GI50 was 0.393 µM and the TGI was 0.738 µM.
With C=C(C)C(=O)O[C@@H]1C[C@@]2(C)O[C@@H]2C[C@H](O)/C(C)=C/[C@H]2OC(=O)C(=C)[C@@H]21 the TGI was > 100 µM.
With C=CC(=O)Nc1cc(Nc2nccc(-c3cn(C)c4ccccc34)n2)c(OC)cc1N(C)CCN(C)C the GI50 was 1.7 µM and 1.63 µM and the TGI was 3.29 µM and 3.16 µM.
CC(=O)OC1(C)N=NC2(CCCCC2)O1 (centres undefined) was tested, and the TGI was > 100 µM.
In the case of C=C1C(=O)O[C@H]2[C@H]1CC/C(CNC(=O)c1cc3ccccc3[nH]1)=C\CC[C@@]1(C)O[C@@H]21, the GI50 is reported as 1.61 µM and the TGI is reported as 3.16 µM.
Cc1cc2c(cc1C)[n+](=O)c(C(=O)c1ccccc1)c(C(F)F)n2[O-] showed a GI50 of 18.4 µM and a TGI of 72.5 µM.
Compound COc1cc2c(cc1OC)C(Cl)C(c1ccc(F)cc1)=C2Cl (centres undefined) has a TGI of 30.4 µM.
In the case of CN(C)c1ccc(/C=N/NC(=S)Nc2ccccc2)cc1, the TGI is reported as > 100 µM.
In the case of COc1ccc2ncnc(Nc3ccc(OCc4ccccc4)cc3)c2c1, the GI50 is reported as 8.96 µM and the TGI is reported as > 25 µM.
In the case of O=C1c2c(F)c(F)c(F)c(F)c2C(=O)N1c1ccc(F)cc1F, the GI50 is reported as 2.78 µM and the TGI is reported as 7.27 µM.
CC(C)[C@@H]1NC(=O)[C@]2(C)CSC(=N2)c2ccnc(c2)CNC(=O)C[C@@H](/C=C/CCS)OC1=O was tested, and the GI50 was 0.0832 µM and the TGI was > 65.5 µM.
For OC(c1cc(C(F)(F)F)nc2c(C(F)(F)F)cccc12)C1CCCCN1 (centres undefined), the GI50 was 2.72 µM and the TGI was 6.34 µM.
For C/C=C/[C@@H]1O[C@@H]2COC(=O)C2=C[C@@H]1O, the GI50 was 2.78 µM and the TGI was 8.14 µM.
